Measurements taken from US11807627B2, “Morphic forms of complement factor D inhibitors” (priority 2018, dated 2023).
In brackets after ≈: the same amount, converted by molar mass.

Legend:
Type in all cases: physicochemical
[1] = Competitive slurries (Example 11)
Experimental: About 10 mg of Form A, Form B and Form J were weighed separately and the solids were combined into one vial. An appropriate volume of selected solvent was then added to form a slurry. Slurries were then agitated under ambient or elevated temperatures for about 48 hours. Post agitation, solids were isolated using centrifuge filtration and XRPD analysis was collected. Table 23 below details selected solvent systems and volumes used.
Solvent was re-introduced (volumes as per Table 24) to the samples and the samples were agitated for a further 72 hours as no single polymorphic form was returned from the experiments after 48 hours agitation. Solids were isolated using centrifuge filtration and XRPD analysis was collected.
Samples were repeated in 2-propanol and 2-propanol/heptane (70/30% v/v) at 60° C. using the above procedure. Samples were agitated for 24 hours and solvent volumes can be found in Table 24 below. […] Isolation of single forms via competitive slurrying appeared to be solvent dependent, as Forms B and J were produced from acetone and acetonitirile, respsectively. […] Both Forms A and B could be isolated from competitive slurrying experiments from different solvent systems but neither was exclusively predominant at a specific temperature.
An additional competitive slurry experiment was conducted. Approximately 20 mg of Form A and Form B were weighed into separate vials. […]

[2] = Polymorph study: evaporation
Experimental: Saturated solutions of Compound 3 produced from temperature cycling experiments were evaporated under ambient conditions. After approximately 4 days, observations were made, and solids recovered were analyzed by XRPD (Table 21).

[3] = Solution stress testing (acid, base, oxidative degradation)
[4] = Solvent experiments (solubility, Example 3)
[5] = Dose number and BCS classification
[6] = pH experiments and SIF/SGF/FaSSIF/FeSSIF solubility (Examples 3 and 4)
[7] = Process for the formation of Form J: XRPD result after each step (Table 22)
Experimental: A polymorph study was completed for Form J. The production of Form J was completed by temperature cycling amorphous Compound 3 in acetronitrile (Form B) with drying the material under ambient conditions for about 24 hours.

[8] = Polarized light microscopy (PLM); conditions: Table 27A
Experimental: The presence of crystallinity (birefringence) was determined using an Olympus BX50 microscope, equipped with cross-polarizing lenses and a Motic camera. Images were captured using Motic Images Plus 2.0. All images were recorded using the 20×objective, unless otherwise stated. All samples were prepared using silicone oil and covered with a cover slip before PLM analysis was completed.

[9] = Compression study (25 kN, 50 kN; Example 13)
Experimental: A mixture of Form A ±Form B and Form B were compressed using a specac IR die press. A total of approximately 100 mg (50 mg A ±50 mg B and 100 mg B) were weighed into separate 2 mL glass vials. The solids were then placed into the IR dies and pressed under 25 kN and 50 kN for about 10-15 seconds. After pressing to 25 kN, material was removed from the dies and ground slightly. A sub-sample was taken and XRPD analysis was collected. Material was then placed back into the dies and pressed to 50 kN. After pressing to 50 kN, material was removed from the dies and ground slightly before collecting XRPD analysis. Both samples observed a small color change from white to off-white after being pressed to 25 kN. […] No single form was observed when compressing a mixture of Forms A and form B material, but a decrease in crystallinity was observed when exerting 50 kN on the mixture.

Grinding study = conditions: pestle and mortar
Experimental: 10 mg of the appropriate Compound 3 material (detailed in Table 28) was weighed into separate HPLC vials. The solids were then ground using a pestle and mortar. Resulting materials were analyzed by XRPD (FIG. 47). From samples where mixtures of forms were used, mixtures of forms were recovered. Where all 3 forms were used, Form A was not returned, although it is possible that the already small particle size of Form A was reduced further by grinding and therefore not detected by XRPD analysis.

CC(=O)c1nn(CC(=O)N2[C@H](C(=O)Nc3nc(Br)ccc3C)C[C@@]3(C)C[C@@H]23)c2ccc(-c3cnc(C)nc3)cc12 [Compound 3 Form A]
Relative stability in competitive slurry ([1]; Form A, Form B and Form J, conversion of Form B to Form A in acetone over 72 hours): may be the most stable form

CC(=O)c1nn(CC(=O)N2[C@H](C(=O)Nc3nc(Br)ccc3C)C[C@@]3(C)C[C@@H]23)c2ccc(-c3cnc(C)nc3)cc12 [Compound 3, (1R,3S,5R)-2-(2-(3-acetyl-5-(2-methylpyrimidin-5-yl)-1H-indazol-1-yl)acetyl)-N-(6-bromo-3-methylpyridin-2-yl)-5-methyl-2-azabicyclo[3.1.0]hexane-3-carboxamide]
Crystallization technique: Evaporations ([2]; 1-Butanol): Amorphous | Crystallization technique: Evaporations ([2]; 2-Methyl Tetrahydrofuran, WC = weakly crystalline): Form A (WC) | Crystallization technique: Evaporations ([2]; 2-Propanol): Amorphous | Crystallization technique: Evaporations ([2]; 40% Ethanol / 60% Water (% v/v) calc. aw = 0.7): Amorphous | Crystallization technique: Evaporations ([2]; 50% 2-Propanol / 50% Heptane (% v/v)): Amorphous | Crystallization technique: Evaporations ([2]; 50% Acetonitrile / 50% Water (% v/v) calc. aw = 0.9): Amorphous | Crystallization technique: Evaporations ([2]; 50% Ethanol / 50% Heptane (% v/v)): Amorphous | Crystallization technique: Evaporations ([2]; 70% 2-Propanol / 30% Water (% v/v) aw = 0.8): Amorphous | Crystallization technique: Evaporations ([2]; 95% 2-Propanol / 5% Heptane (% v/v), WC = weakly crystalline): Form A (WC) | Crystallization technique: Evaporations ([2]; 95% Heptane / 5% 2-Propanol (% v/v)): Amorphous | Crystallization technique: Evaporations ([2]; 95% Methanol / 5% Water (% v/v) calc. aw = 0.2): Amorphous | Crystallization technique: Evaporations ([2]; Acetone, WC = weakly crystalline): Form A (WC) | Crystallization technique: Evaporations ([2]; Acetonitrile): Amorphous | Crystallization technique: Evaporations ([2]; Ethanol, WC = weakly crystalline): Form A (WC) | Crystallization technique: Evaporations ([2]; Ethyl Acetate (dry)): Amorphous | Crystallization technique: Evaporations ([2]; Methanol): Amorphous | Crystallization technique: Evaporations ([2]; Methylethyl Ketone): Amorphous | Crystallization technique: Evaporations ([2]; Methylisobutyl Ketone): Amorphous | Crystallization technique: Evaporations ([2]; Toluene): Amorphous | Crystallization technique: Evaporations ([2]; n-Heptane): Amorphous | Crystallization technique: Evaporations ([2]; tert-Butylmethyl Ether, WC = weakly crystalline): WC (Pattern E) | Solution stress testing: Acid degradation ([3]; 0.1N HCl): Degradation observed | Solution stress testing: Base degradation ([3]; 0.1N NaOH): Degradation observed | Solution stress testing: Oxidative degradation ([3]; H2O2): Not susceptible to oxidation | solubility ([4]; DMSO, organic solvent or mixture): 104 mg/mL (≈ 173000 µM) | solubility ([4]; UPLC Water): 1.04 mg/mL (≈ 1730 µM) | solubility ([4]; acetone, organic solvent or mixture): 34.3 mg/mL (≈ 56900 µM) | solubility ([4]; ethanol, organic solvent or mixture): 8.38 mg/mL (≈ 13900 µM) | solubility ([4]; heptane, organic solvent or mixture): 0.865 mg/mL (≈ 1440 µM) | BCS class [5]: BCS II compound | Dose Number ([5]; for 100 mg dose): Dose Number for 100 mg dos 3-7 | pH Experiments (solubility) ([6]; 1.2 pH): 389.37 μg/mL | pH Experiments: stability in the medium ([6]; 1.2 pH): degrades | pH Experiments (solubility) ([6]; 4.0 pH): 56.68 μg/mL | pH Experiments (solubility) ([6]; 6.0 pH): 54.60 μg/mL | pH Experiments (solubility) ([6]; 7.4 pH): 53.41 μg/mL | solubility ([6]; FaSSIF, read-out: FaSSIF solubility): 0.0754 mg/mL (≈ 125 µM) | solubility ([6]; FeSSIF, read-out: FeSSIF solubility): 0.153 mg/mL (≈ 254 µM) | pH Experiments (solubility) ([6]; SGF pH = 1.6): 96.35 μg/mL | pH Experiments (solubility) ([6]; SIF pH = 6.5): 80.77 μg/mL | XRPD result ([7]; Step 1: Lyophilization): Amorphous | XRPD result ([7]; Step 5: Re-slurry in 5 mL acetonitrile): Form J | XRPD result ([7]; Step 8: Re-slurry in 1.5 mL acetonitrile 18 hours): Form J | XRPD result ([7]; Step 11: Re-slurry 4 ml acetonitrile 18 hours): Form J | XRPD result ([7]; Step 12: Air drying 2, 5 and 24 hours): Form J | XRPD result ([7]; Step 13: After 5 days storage under ambient conditions): Amorphous | XRPD result ([7]; Step 14: Re-slurry 4 ml acetonitrile 18 hours): Form J | XRPD result ([7]; Step 15: Isolation using Buchner funnel (10-15 seconds on filter bed)): Amorphous | XRPD result ([7]; Step 16: Re-slurry 4 ml acetonitrile 4 hours): Form J | XRPD result ([7]; Step 17: Isolation using centrifuge filtration): Form J | XRPD result ([7]; Step 18: Ambient drying 18 hours): Form J

CC(=O)c1nn(CC(=O)N2[C@H](C(=O)Nc3nc(Br)ccc3C)C[C@@]3(C)C[C@@H]23)c2ccc(-c3cnc(C)nc3)cc12 [Form B]
PLM [8]: Birefringent rods | Form change under compression (XRPD) ([9]; 25 kN and 50 kN): did not change under pressure | XRPD Results ([9]; Pressure Exerted 25 kN): Form B | XRPD Results ([9]; Pressure Exerted 50 kN): Form B | Form change upon grinding (XRPD) (Grinding study): did not change form | Relative stability in competitive slurry ([1]; Form A and Form B in saturated Compound 3 solutions, ambient and elevated temperature, about 2 weeks): likely the most thermodynamically stable form
